This note sets out measurements from patent US20090030066A1, “SMALL MOLECULES FOR THE PROTECTION OF PANCREATIC CELLS” (priority 2007, published 2009).

The structures appear in SMILES notation.

The subject of assay [1] is AR42J rat pancreatic tumor cell line. As to the kind of experiment: MTT proliferation of AR42J pancreatic tumor cells. The class given is cell-based. The following applies: 96 h. An excerpt:
In the Examples below, an MTT assay was used to determine the relative number of viable cells after treatments. This calorimetric assay is based on the ability of living cells, but not dead cells, to reduce 3-(4,5-dimethyl thiazol-2-yl)-2,5-diphenyltetrazolium bromide. [Carmichael, J, De Graff, W. G., Gazdar, A. F., Minna, J. D. and Mitchell, J. B. (1987) Evaluation of tetrazolium-based semiautomated calorimetric assay: Assessment of chemosensitivity testing. Cancer Res. 47, 936-942], which is hereby incorporated by reference. For this assay, cells were plated in 96-well plates, and the MTT assay was performed as described in the above article both in untreated and treated cell cultures. The MTT assay also was performed at the time when the treatment was started to allow for assessment of the proliferation and survival rates in the control and treated cell cultures. In the MTT assay, higher values mean proportionally higher numbers of viable cells.
The AR42J rat pancreatic tumor cell line, purchased from ATTC (catalog number: CRL-1492), was propagated in modified Ham's medium containing 20% fetal bovine serum. These cells, derived from a transplantable tumor of the exocrine pancreas, contain significant amounts of amylase and other exocrine enzymes and they produce tumors in athymic mice.
For the experiment, cells were split in 96-well plates at 15,000 cells per well. After 24 hours, the medium was changed for fresh medium (0 hour) and various concentrations of CCompound1 and CCompound3 were added and incubations continued for 96 hours. The MTT assay was used to determine the relative number of viable cells. From the data shown in TABLE 13, in the 2-25 μM concentration range CC compounds had only inhibitory effects on the proliferation of pancreatic cancer cells.

The subject of assay [2] is STZ-treated mice. In words: STZ-treated mice, second experiment: body weight to day 80 and survival. The class given is in vivo. To be noted: STZ + compound. From the text: In a second similar experiment performed with 6 mice in each group, the changes in body weight were followed for up to 80 days (when the last STZ-treated mouse died), and survival was followed for up to 100 days.
For the body weight (on the 80th day) and survival the following values were obtained: Untreated (6 survivors), 37.7 g; STZ-treated (one last survivor died on day 80, others survived for 22, 25, 27, 60, 75 days), 26.0 g; CCompound1-treated (6 survivors), 36.0 g; STZ+CCompound1 treated (6 survivors), 33.4 g; STZ+CCompound3-treated (5 survivors; one mouse died on day 78), 32.5 g. At the start of the experiment (day 0), the average body weight ranged from 28.6 to 29.8 g. Accordingly, by day 80, STZ-treated animals that were also treated with CCompound1 and CCompound3 gained about 50% of the weight gained by the untreated animals.

Assay [3] deals with STZ-treated mice. In words: Blood glucose and body weight in STZ-treated mice, first experiment (not fasted). Type of assay: in vivo. To be noted: for Body weight: STZ 210 mg/kg + compound 4.5 mg/kg i.p., unit not given, in g; for protection of islet β-cells: STZ-induced type 1 diabetes model; for effect on STZ-induced rise of blood glucose: STZ-treated animals, 4.5 mg/kg i.p.; for effect on STZ-induced body weight loss: STZ-treated mice, to day 10. Here is the method: Male C57BL/6 mice (12 weeks old) were housed in a specific pathogen-free facility with a 12-h light/dark cycle and given free access to food and water. Animals weighing between 28-31 g were selected for the experiments. In each group, at the start of experiment the body weight among individual animals differed by less than 1-g.
One group of mice received no treatment over the entire experiment. A second group received only 4.5 mg per kg of CCompound1 on days −2, −1, 0, +1, +2, +3, +4, +5, +6 and +7. A third/fourth/fifth/sixth group of animals were treated i.p. with 210 mg/kg of STZ on day 0. The fourth, fifth, and sixth group of animals also received 4.5 mg per kg each of CCompound1 (CC1; 4th group) or CCompound3 (CC3; 5th group), or CCompound19 (CC19; 6th group) on days −2, −1, 0, +1, +2, +3, +4, +5, +6 and +7 (with STZ treatment given on day 0). Each group consisted of 7 animals. Body weight was measured regularly.
CC compounds were dissolved in physiological saline while STZ was dissolved in 100 mM sodium citrate (pH 4.5). All compounds were injected intraperitoneally in 0.5 ml volume. Control animals were injected physiological saline (0.5 ml) on the same days when other groups were treated with CC compounds.
Blood samples were taken from the eye (canthus) of the animals on days −1, 0, +1, +2, +3, +7 and +10, and glucose concentrations in whole blood samples were immediately measured with the commercially available fast Glucose C test. The animals were not fasted prior to taking the blood samples. The results are expressed as the mean values from 7 animals ±std. dev. (S.D.).

The mark [4] stands for this setting: STZ 210 mg/kg i.p. day 0 + compound 4.5 mg/kg i.p. days −2 to +7, day 0.
Where [5] appears, read: STZ 210 mg/kg i.p. day 0 + compound 4.5 mg/kg i.p. days −2 to +7, day +1.
Setting [6] is: STZ 210 mg/kg i.p. day 0 + compound 4.5 mg/kg i.p. days −2 to +7, day +2.
Where [7] appears, read: STZ 210 mg/kg i.p. day 0 + compound 4.5 mg/kg i.p. days −2 to +7, day +3.
Setting [8] is: STZ 210 mg/kg i.p. day 0 + compound 4.5 mg/kg i.p. days −2 to +7, day +7.
The mark [9] stands for this setting: STZ 210 mg/kg i.p. day 0 + compound 4.5 mg/kg i.p. days −2 to +7, day +10.
Setting [10] is: STZ 210 mg/kg i.p. day 0 + compound 4.5 mg/kg i.p. days −2 to +7, day −1.

Consider `CC[N+](C)(CC)CCOCc1ccc2sc3ccccc3c(=O)c2c1` [CCcompound3], for which the A540 (MTT, relative number of viable cells) turned out to be 1.17 in assay [1] (2 μM), 0.868 ± 0.093 in assay [1] (5 μM), 0.745 ± 0.052 in assay [1] (10 μM) and 0.675 ± 0.064 in assay [1] (25 μM). Moreover, the “weight gained by day 80 relative to the weight gained by the untreated animals” value in the assay on STZ-treated mice [2] is given as “about 50%”. Further, the “body weight on the 80th day” value with STZ-treated mice [2] (6 mice per group) worked out at 32.5 g. Besides, in the assay with STZ-treated mice [2] (80th day, 6 mice per group), the survivors stood at 5. For the same compound, the Body weight with STZ-treated mice [3] (day 0) is 28.0 ± 0.9; in the assay on STZ-treated mice [3] (day +1), 28.2 ± 0.8; with STZ-treated mice [3] (day +2), 25.3 ± 0.5; in the assay with STZ-treated mice [3] (day +3), 25.3 ± 0.6; with STZ-treated mice [3] (day +7), 25.2 ± 0.9; with STZ-treated mice [3] (day +10) it was 24.7 ± 1.3. Moreover, the Blood glucose with STZ-treated mice [3] (setting [4]) stood at 4.7 ± 0.7 mM; in the assay on STZ-treated mice [3] (setting [5]), 6.5 ± 0.7 mM; with STZ-treated mice [3] (setting [6]), 10.7 ± 1.1 mM; in the assay on STZ-treated mice [3] (setting [7]), 13.0 ± 1.1 mM; with STZ-treated mice [3] (setting [8]) it was 14.2 ± 1.3 mM; in the assay with STZ-treated mice [3] (setting [9]), 13.6 ± 1.6 mM. In the assay with STZ-treated mice [3] (setting [10]), the Blood glucose is 4.6 ± 0.5 mM. Further, the “protection of islet β-cells” value in the assay with STZ-treated mice [3] is listed as “clearly protected β-cell function”. Further, in the assay on STZ-treated mice [3], the “effect on STZ-induced rise of blood glucose” value is “prevent drastic increase in blood glucose level”. Besides, the “effect on STZ-induced body weight loss” value in the assay on STZ-treated mice [3] was “reduced the effect of STZ on body weight”.

Regarding `C[N+](C)(C)CCC=C1c2ccccc2Sc2ccccc21.[I-]` [CCcompound19, N,N,N-trimethyl-3-(9H-thioxanthen-9-ylidene)-propane-1-aminium iodide], the Body weight in the assay on STZ-treated mice [3] (day 0) was determined as 28.1 ± 0.5; with STZ-treated mice [3] (day +1), 28.5 ± 1.2; with STZ-treated mice [3] (day +2) it was 26.4 ± 0.8; in the assay on STZ-treated mice [3] (day +3), 26.8 ± 1.0; in the assay on STZ-treated mice [3] (day +7), 26.2 ± 0.9; in the assay with STZ-treated mice [3] (day +10) it was 26.4 ± 1.7. Further, the Blood glucose was determined as 4.8 ± 0.3 mM in the assay on STZ-treated mice [3] (setting [4]); 5.9 ± 0.6 mM in the assay on STZ-treated mice [3] (setting [5]); 8.7 ± 0.8 mM with STZ-treated mice [3] (setting [6]); 10.5 ± 0.9 mM with STZ-treated mice [3] (setting [7]); 12.5 ± 1.1 mM with STZ-treated mice [3] (setting [8]); 11.9 ± 1.1 mM with STZ-treated mice [3] (setting [9]). Besides, the Blood glucose with STZ-treated mice [3] (setting [10]) was 4.3 ± 0.3 mM. Besides, the “protection of islet β-cells” value in the assay with STZ-treated mice [3] is “protected islet β-cells”. Moreover, in the assay with STZ-treated mice [3], the “effect on STZ-induced rise of blood glucose” value is listed as “prevent drastic increase in blood glucose level”. Further, the “effect on STZ-induced body weight loss” value in the assay on STZ-treated mice [3] was “reduced the effect of STZ on body weight”.
